Patent US5846720A, “Methods of determining chemicals that modulate expression of genes associated with cardiovascular disease” (Oncogene Science, Inc., priority 1996, dated 1998)

What was measured:
[1] = tested on: hGH promoter; experiment: hGH promoter/luciferase reporter assay (high-throughput screen I), 532 cells; assay type: cell-based, rat; conditions: Table 2, 6 h incubation; for hGH fold induction relative to solvent control: transcriptional activators; for hGH fold inhibition relative to solvent control: transcriptional inhibitors
Excerpt: 6. a GC rat pituitary cell line, transfected with the growth hormone reporter plasmid, designated 532, deposited under ATCC Accession No. CRL 10663.

[2] = tested on: MMTV promoter; experiment: MMTV promoter/luciferase reporter assay (high-throughput screen I, control for specificity), M10 cells; assay type: cell-based, mouse; conditions: Table 2, 6 h incubation; for MMTV fold induction relative to solvent control: transcriptional activators, original high-throughput assay; for MMTV fold inhibition relative to solvent control: transcriptional inhibitors
Experimental: pMluci and pSV2Neo, an antibiotic resistance plasmid (84), were co-transfected into NIH/3T3 mouse fibroblast cells using the calcium phosphate precipitation method (85) with a commercially available kit (Pharmacia, Piscataway N.J.). Two days later, cells were transferred to media containing 0.4 mg/ml G418 and were grown for an additional 10-14 days. G418-resistant clones were isolated by standard methods. Once sufficient cell numbers were obtained, clones were analyzed based on several criteria: constitutive luciferase production, induction of luciferase expression by dexamethasone ([…], Sigma, St. Louis, Mo.), satisfactory attachment to microtiter plates used in the high-throughput screen (see section G) and acceptable standard deviation in multiple luciferase expression assays (see below for assay protocol). This analysis was carried out using the luciferase assay conditions described above. Of the clones which satisfied the above criteria for the high throughput screen, one clone, M10, was selected for use.

[3] = tested on: G-CSF promoter; experiment: G-CSF promoter/luciferase reporter assay (high-throughput screen I), G21 cells; conditions: Table 2, 6 h incubation; for GCSF fold induction relative to solvent control: transcriptional activators; for GCSF fold inhibition relative to solvent control: transcriptional inhibitors

Row | SMILES | hGH fold induction relative to solvent control [1] | MMTV fold induction relative to solvent control [2] | GCSF fold induction relative to solvent control [3] | hGH fold inhibition relative to solvent control [1] | MMTV fold inhibition relative to solvent control [2] | GCSF fold inhibition relative to solvent control [3]
1 | NCc1ccc(S(N)(=O)=O)cc1 [Chemical 1375] | 0.04 fold | 1.37 fold | 8.94 fold |  |  | 
2 | Cc1ccc(N)c(S(=O)(=O)O)c1 [Chemical 1376] | 0.04 fold | 1.32 fold | 6.37 fold |  |  | 
3 | Cc1ccc(C(=O)c2ccccc2N)cc1 [Chemical 1384] | 0.50 fold | 2.43 fold | 1.33 fold |  |  | 
4 | Cc1cc(N)sn1 [Chemical 1397] | 0.57 fold | 1.13 fold | 3.63 fold |  |  | 
5 | Nc1ccccc1SSc1ccccc1N [Chemical 1482] | 0.54 fold | 1.07 fold | 3.99 fold |  |  | 
6 | Nc1ccc(SSc2ccc(N)cc2)cc1 [Chemical 1483] | 0.38 fold | 1.09 fold | 4.64 fold |  |  | 
7 | Nc1nc(-c2ccccc2)cs1 [Chemical 1499] | 5.55 fold | 0.61 fold | 0.24 fold |  |  | 
8 | Nc1nc2nc[nH]c2c(=S)[nH]1 [Chemical 1521] | 0.73 fold | 0.92 fold | 3.59 fold |  |  | 
9 | Nc1nccs1 [Chemical 1550] | 5.44 fold | 0.87 fold | 0.04 fold |  |  | 
10 | NC1=NCCS1 [Chemical 1552] | 7.26 fold | 0.52 fold | 1.23 fold |  |  | 
11 | Nc1c(Cl)c(Cl)nc(C(=O)O)c1Cl [Chemical 1561] | 8.05 fold | 0.48 fold | 0.23 fold |  |  | 
12 | Brc1ccc2c3c(cccc13)CC2 [Chemical 1573] | 0.34 fold | 4.30 fold | 1.49 fold |  |  | 
13 | Nc1ncnc2c1nc(Br)n2[C@@H]1O[C@H](CO)[C@@H](O)[C@H]1O [Chemical 1583] | 0.12 fold | 0.88 fold | 5.82 fold |  |  | 
14 | Cc1ccc(P(CCP(c2ccc(C)cc2)c2ccc(C)cc2)c2ccc(C)cc2)cc1 [Chemical 1591] |  |  |  | 5.55 fold | 0.96 fold | 0.56 fold
15 | CC1(C)[C@@H](C(=O)OCC(F)(F)C(F)(F)C(F)(F)C(F)(F)C(F)(F)C(F)F)CC[C@@]1(C)C(=O)OCC(F)(F)C(F)(F)C(F)(F)C(F)(F)C(F)(F)C(F)F [Chemical 1592] | 0.74 fold | 1.34 fold | 3.20 fold |  |  | 
16 | O=C(Nc1cccc(C2=NCCN2)c1)Nc1cccc(C2=NCCN2)c1 [Chemical 1598] | 5.32 fold | 1.27 fold | 0.72 fold |  |  | 
17 | O=S(=O)(O)c1ccc(-c2nnc(-c3ccnc(-c4nnc(-c5ccc(S(=O)(=O)O)cc5)c(-c5ccc(S(=O)(=O)O)cc5)n4)c3)nc2-c2ccc(S(=O)(=O)O)cc2)cc1 [Chemical 1604] |  |  |  | 5.00 fold | 0.97 fold | 0.77 fold
18 | CC1(C)[C@H]2CC[C@]1(C)[C@H](O)C2 [Chemical 1635] |  |  |  | 9.09 fold | 0.99 fold | 0.71 fold
19 | C(=Cc1ccccn1)c1ccccn1 [Chemical 1640] |  |  |  | 5.00 fold | 0.59 fold | 0.79 fold
20 | c1ccc(-c2nccnc2-c2ccccn2)nc1 [Chemical 1641] |  |  |  | 5.55 fold | 0.60 fold | 0.83 fold
